These results are taken from patent publication US9617221B2, “Kinase modulators for the treatment of cancer” (Synovo GmbH, priority 2010, dated 2017).

Type in all cases: cell-based, mice
One test concerns NO. The experiment in a line: NO production by LPS-stimulated macrophages. To be noted: 10 μM, 72 h.
The subject of the next test is IL-6. In words: IL-6 production by LPS-stimulated macrophages. To be noted: 10 μM, 72 h. The protocol:
(§1) Peritoneal macrophage or splenocytes (lymphocytes and macrophage) were harvested from donor mice using standard techniques. Cells were placed in culture and stimulated with either LPS (10 μg/mL) or concanavalin A 5 μg/mL (Sigma Chemical Co., St Louis, Mo.) in RPMI-1640 medium supplemented with antibiotics, […] 2-mercaptoethanol, 10 mm HEPES buffer and 10% fetal calf serum (FCS) (see Holan et al., 1985) to stimulate macrophage and T-cells respectively. Compounds were added from DMSO stock solutions to a final concentration of 50 μM or less with DMSO not exceeding 1% of total volume. After 72 h, cell supernatant was recovered and the cytokine levels were estimated by ELISA. The effect of compounds on cytokine production was recorded as follows: […]

In test [1] the test system is IL-10. The experiment in a line: IL-10 production by LPS-stimulated murine peritoneal macrophage (ELISA). To be noted: for IL-10 by ELISA, % of solvent treated control: murine peritoneal macrophage; for IL-10 (LPS, Macrophages), amount of cytokine: 10 μM, 72 h. The protocol: as §1
For another test, the system named is IL-2. The experiment in a line: IL-2 production by ConA-stimulated T cells. To be noted: 10 μM, 72 h. As for the experimental part: as §1
A further test has as its system IFN-g. The experiment in a line: IFN-g production by ConA-stimulated T cells. To be noted: 10 μM, 72 h. The protocol:
as §1

In test [2] the test system is IL-10. In words: IL-10 production by ConA-stimulated T cells. To be noted: 10 μM, 72 h. The protocol: as §1
A further test concerns T cells. The experiment in a line: Proliferation of Con A-stimulated T cells. To be noted: 10 μM. As for the experimental part:
as §1

The test system of the next test is B cells. The experiment in a line: Proliferation of LPS-stimulated B cells. To be noted: 10 μM.
A further test has as its system IL-4. In words: IL-4 production, Con A, spleen. To be noted: 5 μM, 72 h. The protocol: as §1

With `CC[C@H]1OC(=O)[C@H](C)[C@@H](O[C@H]2C[C@@](C)(OC)[C@@H](O)[C@H](C)O2)[C@H](C)[C@@H](O[C@@H]2O[C@H](C)C[C@H](N(C)CCCC(=O)OCC(O)CSc3nc(-c4ccc(F)cc4)c(-c4ccnc(NC5CCOCC5)c4)[nH]3)[C@H]2O)[C@](C)(O)C[C@@H](C)CN(C)[C@H](C)[C@@H](O)[C@]1(C)O` (stereo partly shown) [Compound 43b], the “NO (LPS, Macrophages), % of control treated with solvent alone” value (“NO (LPS, Macrophages), %” below) in the test on NO is recorded as 31 % of control treated with solvent alone. Also, the “IL-6 (LPS, Macrophages), amount of cytokine” value (shortened to “IL-6 (LPS, Macrophages)”) with IL-6 was 94 % of control treated with solvent alone. The “IL-10 by ELISA, % of solvent treated control” value (from here on “IL-10 by ELISA, %”) in the test on IL-10 [1] (2 μM inhibitor in medium) was 27 % of solvent treated control; in the test on IL-10 [1] (10 μM inhibitor in medium), −4 % of solvent treated control; in the test with IL-10 [1] (50 μM inhibitor in medium), −4 % of solvent treated control. Also, in the test with IL-10 [1], the “IL-10 (LPS, Macrophages), amount of cytokine” value (“IL-10 (LPS, Macrophages)” below) is reported as −4 % of control treated with solvent alone. Further, in the test on IL-2, the “IL-2 (ConA, T cells), amount of cytokine” value is given as 0 % of control treated with solvent alone. Besides, the “IFN-g (ConA, T cells), amount of cytokine” value (“IFN-g (ConA, T cells)” for short) with IFN-g was 0 % of control treated with solvent alone. The “IL-10 (ConA, T cells), amount of cytokine” value (shortened to “IL-10 (ConA, T cells)”) with IL-10 [2] is reported as −2 % of control treated with solvent alone. In addition, the “Proliferation (Con A, T cells)” value in the test on T cells is −2 % of control treated with solvent alone. In addition, the “Proliferation (LPS, B cells)” value in the test with B cells is recorded as −3 % of control treated with solvent alone.

Turning to `CC[C@H]1OC(=O)[C@H](C)[C@@H](O)[C@H](C)[C@@H](O[C@@H]2O[C@H](C)C[C@H](N(C)CCCC(=O)OCC(O)CSc3nc(-c4ccc(F)cc4)c(-c4ccnc(NC5CCOCC5)c4)[nH]3)[C@H]2O)[C@](C)(O)C[C@@H](C)CN(C)[C@H](C)[C@@H](O)[C@]1(C)O` (stereo partly shown) [Compound 43c], the “NO (LPS, Macrophages), %” value with NO is 82 % of control treated with solvent alone. Further, the “IL-6 (LPS, Macrophages)” value in the test on IL-6 is reported as 95 % of control treated with solvent alone. Moreover, the “IL-10 by ELISA, %” value in the test on IL-10 [1] (2 μM inhibitor in medium) is listed as 18 % of solvent treated control; with IL-10 [1] (10 μM inhibitor in medium) it was 7 % of solvent treated control; in the test on IL-10 [1] (50 μM inhibitor in medium), −4 % of solvent treated control. Moreover, the “IL-10 (LPS, Macrophages)” value with IL-10 [1] is on record as 7 % of control treated with solvent alone. For the same compound, the “IL-2 (ConA, T cells), amount of cytokine” value in the test with IL-2 is listed as 90 % of control treated with solvent alone. Further, the “IFN-g (ConA, T cells)” value with IFN-g is given as 72 % of control treated with solvent alone. Besides, the “IL-10 (ConA, T cells)” value with IL-10 [2] is 25 % of control treated with solvent alone. Further, in the test with T cells, the “Proliferation (Con A, T cells)” value is 113 % of control treated with solvent alone. The “Proliferation (LPS, B cells)” value in the test with B cells is recorded as 2 % of control treated with solvent alone.

In the case of `CCC(C)Nc1cc(-c2[nH]c(SCC(O)COC(=O)CCCN(C)[C@H]3C[C@@H](C)O[C@@H](O[C@@H]4[C@@H](C)[C@H](O[C@H]5C[C@@](C)(OC)[C@@H](O)[C@H](C)O5)[C@@H](C)C(=O)O[C@H](CC)[C@@](C)(O)[C@H](O)[C@@H](C)N(C)C[C@H](C)C[C@@]4(C)O)[C@@H]3O)nc2-c2ccc(F)cc2)ccn1` (stereo partly shown) [Compound 43d], the “NO (LPS, Macrophages), %” value in the test on NO is reported as 52 % of control treated with solvent alone. Besides, the “IL-6 (LPS, Macrophages)” value with IL-6 was 95 % of control treated with solvent alone. The “IL-10 by ELISA, %” value is 15 % of solvent treated control with IL-10 [1] (2 μM inhibitor in medium), −4 % of solvent treated control in the test on IL-10 [1] (10 μM inhibitor in medium) and −4 % of solvent treated control with IL-10 [1] (50 μM inhibitor in medium). In addition, the “IL-10 (LPS, Macrophages)” value in the test on IL-10 [1] is on record as −4 % of control treated with solvent alone. Besides, the “IL-2 (ConA, T cells), amount of cytokine” value with IL-2 is on record as 0 % of control treated with solvent alone. The “IFN-g (ConA, T cells)” value with IFN-g is on record as 3 % of control treated with solvent alone. In addition, the “IL-10 (ConA, T cells)” value in the test on IL-10 [2] is given as −2 % of control treated with solvent alone. In addition, in the test on T cells, the “Proliferation (Con A, T cells)” value is given as −2 % of control treated with solvent alone. In addition, in the test with B cells, the “Proliferation (LPS, B cells)” value was −3 % of control treated with solvent alone.

With `CCC(C)Nc1cc(-c2[nH]c(SCC(O)COC(=O)CCCN(C)[C@H]3C[C@@H](C)O[C@@H](O[C@@H]4[C@@H](C)[C@H](O)[C@@H](C)C(=O)O[C@H](CC)[C@@](C)(O)[C@H](O)[C@@H](C)N(C)C[C@H](C)C[C@@]4(C)O)[C@@H]3O)nc2-c2ccc(F)cc2)ccn1` (stereo partly shown) [Compound 43e], the “NO (LPS, Macrophages), %” value in the test on NO is 1 % of control treated with solvent alone. For the same compound, the “IL-6 (LPS, Macrophages)” value in the test with IL-6 is 29 % of control treated with solvent alone. The “IL-10 by ELISA, %” value with IL-10 [1] (2 μM inhibitor in medium), with IL-10 [1] (10 μM inhibitor in medium) and in the test with IL-10 [1] (50 μM inhibitor in medium) was −4 % of solvent treated control throughout. The “IL-10 (LPS, Macrophages)” value with IL-10 [1] is −4 % of control treated with solvent alone. Moreover, in the test with IL-2, the “IL-2 (ConA, T cells), amount of cytokine” value is 0 % of control treated with solvent alone. Moreover, in the test with IFN-g, the “IFN-g (ConA, T cells)” value is listed as 0 % of control treated with solvent alone. Further, the “IL-10 (ConA, T cells)” value with IL-10 [2] is −2 % of control treated with solvent alone. The “Proliferation (Con A, T cells)” value with T cells is given as −1 % of control treated with solvent alone. In the test on B cells, the “Proliferation (LPS, B cells)” value is recorded as −3 % of control treated with solvent alone.

`CC[C@H]1OC(=O)[C@H](C)[C@@H](O[C@H]2C[C@@](C)(OC)[C@@H](O)[C@H](C)O2)[C@H](C)[C@@H](O[C@@H]2O[C@H](C)C[C@H](N(C)CCCC(=O)OCC(O)CSc3nc(-c4ccc(F)cc4)c(-c4ccnc(NC(C)C)c4)[nH]3)[C@H]2O)[C@](C)(O)C[C@@H](C)CN(C)[C@H](C)[C@@H](O)[C@]1(C)O` (stereo partly shown) [Compound 43f]: in the test with NO, the “NO (LPS, Macrophages), %” value is listed as 2 % of control treated with solvent alone. The “IL-6 (LPS, Macrophages)” value in the test with IL-6 was 30 % of control treated with solvent alone. The “IL-10 by ELISA, %” value in the test on IL-10 [1] (2 μM inhibitor in medium) was −1 % of solvent treated control; in the test on IL-10 [1] (10 μM inhibitor in medium), −10 % of solvent treated control; with IL-10 [1] (50 μM inhibitor in medium), 27 % of solvent treated control. Besides, in the test on IL-10 [1], the “IL-10 (LPS, Macrophages)” value is given as −10 % of control treated with solvent alone. Further, in the test on IL-2, the “IL-2 (ConA, T cells), amount of cytokine” value is recorded as -1 % of control treated with solvent alone. For the same compound, the “IFN-g (ConA, T cells)” value in the test with IFN-g is recorded as 61 % of control treated with solvent alone. Moreover, in the test on IL-10 [2], the “IL-10 (ConA, T cells)” value was 0 % of control treated with solvent alone. In addition, the “Proliferation (Con A, T cells)” value in the test with T cells was −8 % of control treated with solvent alone. Also, the “Proliferation (LPS, B cells)” value in the test on B cells is given as −6 % of control treated with solvent alone.

As to `CC[C@H]1OC(=O)[C@H](C)[C@@H](O[C@H]2C[C@@](C)(OC)[C@@H](O)[C@H](C)O2)[C@H](C)[C@@H](O[C@@H]2O[C@H](C)C[C@H](N(C)CCCC(=O)OCC(O)COc3cccc(C(=O)c4cnn(-c5ccc(F)cc5)c4N)c3)[C@H]2O)[C@](C)(O)C[C@@H](C)CN(C)[C@H](C)[C@@H](O)[C@]1(C)O` (stereo partly shown) [Compound 43h], the entries for the “IL-10 by ELISA, %” value with IL-10 [1] (1.25 μM inhibitor in medium), in the test on IL-10 [1] (5 μM inhibitor in medium) and in the test on IL-10 [1] (20 μM inhibitor in medium) were 68 % of solvent treated control, 52 % of solvent treated control and −11 % of solvent treated control, respectively. The “IL-4 (Con A, spleen), amount of cytokine” value in the test on IL-4 is given as 280 % of control treated with solvent alone.

In the case of `CC[C@H]1OC(=O)[C@H](C)[C@@H](O[C@H]2C[C@@](C)(OC)[C@@H](O)[C@H](C)O2)[C@H](C)[C@@H](O[C@@H]2O[C@H](C)C[C@H](N(C)CCCCCC(=O)OCCSc3nc(-c4ccc(F)cc4)c(-c4ccnc(NC(C)C)c4)[nH]3)[C@H]2O)[C@](C)(O)C[C@@H](C)CN(C)[C@H](C)[C@@H](O)[C@]1(C)O` [Compound 43k], in the test with NO, the “NO (LPS, Macrophages), %” value is reported as −1 % of control treated with solvent alone. For the same compound, in the test with IL-6, the “IL-6 (LPS, Macrophages)” value is reported as 22 % of control treated with solvent alone. In addition, the “IL-10 by ELISA, %” value is listed as −6 % of solvent treated control in the test on IL-10 [1] (2 μM inhibitor in medium), −8 % of solvent treated control in the test on IL-10 [1] (10 μM inhibitor in medium) and −9 % of solvent treated control in the test on IL-10 [1] (50 μM inhibitor in medium). Also, the “IL-10 (LPS, Macrophages)” value in the test with IL-10 [1] is reported as −8 % of control treated with solvent alone. Also, the “IL-2 (ConA, T cells), amount of cytokine” value with IL-2 was 0 % of control treated with solvent alone. Further, the “IFN-g (ConA, T cells)” value with IFN-g is 0 % of control treated with solvent alone. Further, in the test on IL-10 [2], the “IL-10 (ConA, T cells)” value is recorded as 0 % of control treated with solvent alone. The “Proliferation (Con A, T cells)” value in the test with T cells is given as −1 % of control treated with solvent alone. Besides, the “Proliferation (LPS, B cells)” value with B cells is −8 % of control treated with solvent alone.
